Laboratory results taken from patent US20200222347A1, “ANTIMICROBIALS AND METHODS OF USE THEREOF” (priority 2013, published 2020).
Entries after “also recorded” stand apart in the source; their conditions may differ. Read-outs that look alike come from different tables or passages of the source.

Columns and labels:
[1] = tested on: Pseudomonas aeruginosa ATCC9027; experiment: Paper disc test with water or propylene glycol, Example 10
[2] = tested on: P. aeruginosa (ACTA 27853); type: in vivo; conditions: for bacterial burden of P. aeruginosa in skin tissue: 25 mM topical in water
[3] = tested on: P. aeruginosa; experiment: Kirby-Bauer disc diffusion antimicrobial susceptibility; type: cell-based, Pseudomonas aeruginosa; conditions: 100 mM, carrier water; 18-24 hours for aerobes
[4] = tested on: Propionibacterium acnes (1100; ATCC 6919); experiment: BALB/c mice intradermal infection, topical treatment, Example 9; type: in vivo; conditions: for effect on P. acnes CFU burden in mouse skin: 96 hours
Procedure: BALB/c mice were infected with Propionibacterium acnes via intradermal injection and treated topically with varying concentrations of a novel test compound, PCA, at 2, 24, 48 and 72 hours following challenge. Efficacy was evaluated by CFU analysis from skin samples harvested at 96 hours post challenge.
Female BALB/c mice, ordered from Harlan and weighing 17-19 g, were acclimated to housing conditions and handled in accordance with AUP number TP-18-13. The animals were acclimated for 4 days prior to bacterial challenge. Only animals deemed healthy and fully immunocompetent were included in this study. Cages were prepared with 2 mice per cage.
On Day −1, each mouse was anesthetized in an Isoflurane induction chamber and the lesion site was cleared of hair. An area of approximately 2.0 cm×2.0 cm of skin on the dorsal area of each mouse was cleared through use of the depilatory agent Nair®.
Cultures were grown for 96 hrs at 37° C. in an anaerobic atmosphere on TS agar plates supplemented with 5% sheep blood cells. The culture was aseptically swabbed and transferred to tubes of TS broth and allowed to grow for 72 hours. The cultures were diluted to provide challenge inoculum of approximately 6.0-7.0 log 10 CFU per 50 μL in PBS. On Day 0 each mouse was anesthetized using Isoflurane. Each animal on the study was administered 50 μL of the bacterial suspension via intradermal injection in the dorsal area that was previously denuded of hair. The final CFU count from the challenge suspension determined that 6.0 log 10 CFU per mouse were delivered.
The test treatment, PCA, was provided by the study Sponsor and formulated using sterile water. Treatments were administered topically in a dose volume of 0.1 mL. Treatments were given at 2, 24, 48 and 72 hours post challenge at 60 mg/kg (78 mM; Group 3), 30 mg/kg (39 mM; Group 4) or 15 mg/kg (19.5 mM; Group 5).
At 96 hours following challenge, mice were humanely euthanized and skin was aseptically removed from the infection site. Skin samples were placed in homogenation vials with 2.0 mL PBS, weighed and homogenized using a mini-bead beater. Homogenate was serially diluted and plated anaerobically on TSA agar plates for enumeration of colony forming units per gram of skin tissue.

[5] = tested on: K. pneumoniae; experiment: Kirby-Bauer disc diffusion antimicrobial susceptibility; type: cell-based; conditions: 100 mM, carrier water; 18-24 hours for aerobes

Compound: O=C(O)c1ccc(O)c(O)c1 [PCA, Protocatechuic acid]
- inhibition of growth under the sample ([1]; PPG): I
- zone of inhibition ([1]; PPG): 4 mm
- inhibition of growth under the sample ([1]; Water): I
- zone of inhibition ([1]; Water): 10 mm
- bacterial burden of P. aeruginosa in skin tissue ([2]; 48 and 96 hours): reduced the bacterial burden
- bacterial burden of P. aeruginosa in skin tissue ([2]; 48 hours): significantly decreased; also recorded: effective
- dose that was bactericidal on Pseudomonas aeruginosa on taped stripped rodent skin ([2]; calculated from 25 mM and applied volume): 0.00038 grams
- kill of Pseudomonas aeruginosa ([2]; in 48 hours, both reagents and dose (PCA 25, 50 mM; C3G 100, 200 mM)): 10,000 fold
- action on stripped skin wound of a rodent ([2]; topical, various calculated doses, in 48 to 96 hours): bactericidal
- effectiveness against P. aeruginosa [3]: effective; also recorded: some effectiveness
- effect on P. acnes CFU burden in mouse skin ([4]; 15 mg/kg (19.5 mM) topical): no such effect; also recorded: statistically non-different
- effect on P. acnes CFU burden in mouse skin ([4]; 30 mg/kg (39 mM) topical): no such effect; also recorded: statistically non-different
- reduction of CFU burden in skin vs untreated ([4]; 60 mg/kg (78 mM) topical at 2, 24, 48 and 72 hours, harvest 96 hours): approximately 1 log 10
- effect on P. acnes CFU burden in mouse skin ([4]; 60 mg/kg (78 mM) topical, P=0.0285 vs untreated): bacteriostatic effect; also recorded: significant reduction
- effectiveness against K. pneumoniae [5]: effective
